# Literature values, collected in patent US20250090617A1, “FORMULATIONS FOR TREATING OBESITY AND DIABETES AND FOR PROVIDING OTHER HEALTH RELATED BENEFITS” (Healthrite Partners, LLC, priority 2019, published 2025).
# Tested on: cellular ATP
# Conditions: several studies, including clinical studies in humans
row,SMILES,effect on cellular ATP
1,Oc1ncnc2[nH]ncc12 [Allopurinol],increase in cellular ATP
2,OC[C@H]1O[C@@H](n2cnc3c(O)ncnc32)[C@H](O)[C@@H]1O [Inosine],did not affect ATP levels
3,Cc1nc(-c2ccc(OCC(C)C)c(C#N)c2)sc1C(=O)O [Febuxostat],increase in cellular ATP
